Measured values taken from publication PMC10873978, “Novel tetrahydroisoquinolines as DHFR and CDK2 inhibitors: synthesis, characterization, anticancer activity and antioxidant properties” (BMC Chemistry, 2024).
Entries after “also recorded” stand apart in the source; their conditions may differ.

Tests used:
A549 cell line = assay: In vitro cytotoxic activity, MTT method, A549; settings: for IC50: Homo sapiens, read-out: IC50 ± SD
Method: (§1) Cell lines: The in vitro human breast cancerous cell line (MCF7), lung cancerous cell lines (A549) and normal cell lines were purchased from Serum and Vaccine formulation in Cairo-Egypt.
(§2) In vitro cytotoxic activity of all synthesized compounds against two human breast cell line (MCF7) and lung cell lines (A549) was evaluated according to the MTT method. Firstly, Growth the cell line medium in 96 well tissue culture plate was injected with 10^5 cells/mL (100 uL/plate well) of the cell line and incubated at 37 °C for 24 h to develop a monolayer sheet then the formed growth medium was poured from 96 well microtiter plates after the confluent sheet of cells. […] Secondly, add 0.1 mL of each concentration tetrahydroisoquinoline sample to each plate. The plates were incubated at 37 °C. Thirdly MTT solution (5 mg/mL in PBS) is prepared. Add 20 µL of MTT solution to each well plates. And shaking in 150 rpm for 5 min, to mix the MTT into the media. Then incubate at (37 °C, 5% CO2) for 1–5 h. Finally read the optical density at 560 nm and subtract background at 620 nm.
(§3) In this work, doxorubicin was used as a positive control drug for comparison with the synthesized compounds under the same experimental conditions.

MCF7 cell line = assay: In vitro cytotoxic activity, MTT method, MCF7; format: cell-based, human; settings: for IC50: Homo sapiens, MCF7, MCF7 cell line, MTT
Method: as §1, §2, §3

[1] = DPPH scavenging antioxidant activity
Method: The antioxidant activity of ten compounds was determined using DPPH [32–34]. A solution 1: prepared by dissolving DPPH (0.002 g) in ethanol (50 mL etnanol). Solution 2: prepared by dissolving different weights 0.05, 0.01 g of each sample in 1 mL of DMSO then take 10 µL of each sample solution with 1 mL ethanol. Then mix 1 mL of solution 1 with 1 mL of solution 2 then vortex the resulting mixture in the dark for about 30 min. The absorbance of the mixture was measured by spectrophotometer at λmax = 517 nm against blank 1 mL absolute ethanol and compared to the ascorbic acid (Vitamin C).
Ten newly synthesized compounds were studied as in vitro antioxidants by measuring of their DPPH scavenging activity which is represented as a percentage % [32]^. Results are represented by mean ± SD of three replicates. […] The higher dose concentration of 0.05 μg/mL represents higher antioxidant activity. […] The high antioxidant activity is referred to the presence of C=O, NH2, and OH groups like ascorbic acid which can be easily oxidized and reduced and can be used as antioxidant drugs. (Fig. 8 and Table 9).

Work on `CC(=O)C1C(c2ccc(N(C)C)cc2)c2c(C)nc(SCC(=O)Nc3ccc(C)cc3)c(C#N)c2CC1(C)O` (stereo not drawn) [Compound 7b, 2-[(7-Acetyl-4-cyano-1,6-dimethyl-6-hydroxy-8-(4-N,N-dimethylamino-phenyl)-5,6,7,8-tetrahydroisoquinolin-3-yl)thio]-N-(4-tolyl)acetamide] yielded a Toxicity % (A549 cell line; A549, Conc. 0.04875 µMol) of 0.2467%, a Viability % (A549 cell line; A549, Conc. 0.04875 µMol) of 99.7534% and a Toxicity % (A549 cell line; A549, Conc. 0.0975 µMol) of 0.3467%. The Viability % (A549 cell line; A549, Conc. 0.0975 µMol) was 99.6534%, the Toxicity % (A549 cell line; A549, Conc. 0.195 µMol) was 0.5128% and the Viability % (A549 cell line; A549, Conc. 0.195 µMol) was 99.49%. For the same compound, the Toxicity % (A549 cell line; A549, Conc. 0.391 µMol) was 14.2%, the Viability % (A549 cell line; A549, Conc. 0.391 µMol) was 85.8% and the Toxicity % (A549 cell line; A549, Conc. 0.781 µMol) was 35.82%. For the same compound, the Viability % (A549 cell line; A549, Conc. 0.781 µMol) was 64.18%, the Toxicity % (A549 cell line; A549, Conc. 1.562 µMol) was 53.81% and the Viability % (A549 cell line; A549, Conc. 1.562 µMol) was 46.19%. For the same compound, the Toxicity % (A549 cell line; A549, Conc. 3.125 µMol) was 72.39%, the Viability % (A549 cell line; A549, Conc. 3.125 µMol) was 27.61% and the Toxicity % (A549 cell line; A549, Conc. 6.25 µMol) was 86.39%. It also gave a Viability % (A549 cell line; A549, Conc. 6.25 µMol) of 13.61%, a Toxicity % (A549 cell line; A549, Conc. 12.5 µMol) of 93.85% and a Viability % (A549 cell line; A549, Conc. 12.5 µMol) of 6.154%. It also gave a Toxicity % (A549 cell line; A549, Conc. 25 µMol) of 96.41%, a Viability % (A549 cell line; A549, Conc. 25 µMol) of 3.59% and an IC50 (A549 cell line) of 987 ± 2 nM. For the same compound, the IC50 (MCF7 cell line) was 474 ± 6 nM, the Toxicity % (MCF7 cell line; MCF7, 0.0487 µMol) was 4.569% and the Viability % (MCF7 cell line; MCF7, 0.0487 µMol) was 95.4311%. It also gave a Toxicity % (MCF7 cell line; MCF7, 0.0975 µMol) of 6.234%, a Viability % (MCF7 cell line; MCF7, 0.0975 µMol) of 93.77% and a Toxicity % (MCF7 cell line; MCF7, 0.195 µMol) of 8.333%. The Viability % (MCF7 cell line; MCF7, 0.195 µMol) was 91.67%, the Toxicity % (MCF7 cell line; MCF7, 0.391 µMol) was 39.62% and the Viability % (MCF7 cell line; MCF7, 0.391 µMol) was 60.38%. It also gave a Toxicity % (MCF7 cell line; MCF7, 0.781 µMol) of 74.92%, a Viability % (MCF7 cell line; MCF7, 0.781 µMol) of 25.08% and a Toxicity % (MCF7 cell line; MCF7, 1.562 µMol) of 82.39%. For the same compound, the Viability % (MCF7 cell line; MCF7, 1.562 µMol) was 17.61%, the Toxicity % (MCF7 cell line; MCF7, 3.125 µMol) was 86.44% and the Viability % (MCF7 cell line; MCF7, 3.125 µMol) was 13.56%. For the same compound, the Toxicity % (MCF7 cell line; MCF7, 6.25 µMol) was 93.1%, the Viability % (MCF7 cell line; MCF7, 6.25 µMol) was 6.904% and the Toxicity % (MCF7 cell line; MCF7, 12.5 µMol) was 96.61%. For the same compound, the Viability % (MCF7 cell line; MCF7, 12.5 µMol) was 3.391%, the Toxicity % (MCF7 cell line; MCF7, 25 µMol) was 96.57% and the Viability % (MCF7 cell line; MCF7, 25 µMol) was 3.431%. For the same compound, the “DPPH scavenging, inhibition (%)” value ([1]; 0.01 µg/mL) was 48.59 ± 0.73% and the “DPPH scavenging, inhibition (%)” value ([1]; 0.05 µg/mL) was 52.19 ± 0.58%.
In the case of `CC(=O)C1C(c2ccc(N(C)C)cc2)c2c(C)nc(SCC(=O)Nc3ccc(Cl)cc3)c(C#N)c2CC1(C)O` (stereo not drawn) [Compound 7c, 2-[(7-Acetyl-4-cyano-1,6-dimethyl-6-hydroxy-8-(4-N,N-dimethylamino-phenyl)-,5,6,7,8-tetrahydroisoquinolin-3-yl)thio]-N-(4-chlorophenyl)acetamide], the Toxicity % (A549 cell line; A549, Conc. 0.04875 µMol) is reported as 3.457%, the Viability % (A549 cell line; A549, Conc. 0.04875 µMol) is reported as 96.54% and the Toxicity % (A549 cell line; A549, Conc. 0.0975 µMol) is reported as 4.658%. The Viability % (A549 cell line; A549, Conc. 0.0975 µMol) was 95.3422%, the Toxicity % (A549 cell line; A549, Conc. 0.195 µMol) was 6.193% and the Viability % (A549 cell line; A549, Conc. 0.195 µMol) was 93.81%. For the same compound, the Toxicity % (A549 cell line; A549, Conc. 0.391 µMol) was 33.41%, the Viability % (A549 cell line; A549, Conc. 0.391 µMol) was 66.59% and the Toxicity % (A549 cell line; A549, Conc. 0.781 µMol) was 51.48%. For the same compound, the Viability % (A549 cell line; A549, Conc. 0.781 µMol) was 48.52%, the Toxicity % (A549 cell line; A549, Conc. 1.562 µMol) was 68.05% and the Viability % (A549 cell line; A549, Conc. 1.562 µMol) was 31.95%. It also gave a Toxicity % (A549 cell line; A549, Conc. 3.125 µMol) of 77.2%, a Viability % (A549 cell line; A549, Conc. 3.125 µMol) of 22.8% and a Toxicity % (A549 cell line; A549, Conc. 6.25 µMol) of 90.57%. The Viability % (A549 cell line; A549, Conc. 6.25 µMol) was 9.428%, the Toxicity % (A549 cell line; A549, Conc. 12.5 µMol) was 95.94% and the Viability % (A549 cell line; A549, Conc. 12.5 µMol) was 4.063%. The Toxicity % (A549 cell line; A549, Conc. 25 µMol) was 97.44%, the Viability % (A549 cell line; A549, Conc. 25 µMol) was 2.564% and the IC50 (A549 cell line) was 496 ± 3 nM. The IC50 (MCF7 cell line) was 1491 ± 4 nM, the Toxicity % (MCF7 cell line; MCF7, 0.0487 µMol) was -0.6776% and the Viability % (MCF7 cell line; MCF7, 0.0487 µMol) was 100.4%. It also gave a Toxicity % (MCF7 cell line; MCF7, 0.0975 µMol) of -0.5335%, a Viability % (MCF7 cell line; MCF7, 0.0975 µMol) of 100.6% and a Viability % (MCF7 cell line; MCF7, 0.195 µMol) of 99.47%. The Viability % (MCF7 cell line; MCF7, 0.391 µMol) was 100.1634%, the Toxicity % (MCF7 cell line; MCF7, 0.781 µMol) was 8.333% and the Viability % (MCF7 cell line; MCF7, 0.781 µMol) was 91.67%. The Toxicity % (MCF7 cell line; MCF7, 1.562 µMol) was 36.68%, the Viability % (MCF7 cell line; MCF7, 1.562 µMol) was 63.32% and the Toxicity % (MCF7 cell line; MCF7, 3.125 µMol) was 65.48%. For the same compound, the Viability % (MCF7 cell line; MCF7, 3.125 µMol) was 34.52%, the Toxicity % (MCF7 cell line; MCF7, 6.25 µMol) was 86.36% and the Viability % (MCF7 cell line; MCF7, 6.25 µMol) was 13.64%. It also gave a Toxicity % (MCF7 cell line; MCF7, 12.5 µMol) of 80.15%, a Viability % (MCF7 cell line; MCF7, 12.5 µMol) of 19.85% and a Toxicity % (MCF7 cell line; MCF7, 25 µMol) of 96.77%. For the same compound, the Viability % (MCF7 cell line; MCF7, 25 µMol) was 3.227%, the “DPPH scavenging, inhibition (%)” value ([1]; 0.01 µg/mL) was 77.90 ± 6.22% and the “DPPH scavenging, inhibition (%)” value ([1]; 0.05 µg/mL) was 81.39 ± 4.99%. The “antioxidant activity compared with Vitamin C” value ([1]; DPPH) was “higher result than Vitamin C; also recorded: higher antioxidant activity than Vitamin C”.
